Results as given in patent US10226451B2, “Substituted bicyclic compounds as bromodomain inhibitors” (ZENITH EPIGENETICS LTD, priority 2013, dated 2019).

Tests used:
[1] = target: T1, Brd4 bromodomain 1 (BRD4(1)) (Homo sapiens, UniProt O60885); assay: Inhibition of tetra-acetylated histone H4 binding to Brd4 bromodomain 1 (HTRF/FRET); conditions: tetra-acetylated histone H4 peptide, His-tagged bromodomain 200 nM, 2 h
T1 construct: made in house; host or cells: E. coli BL21(DE3)
Experimental: Proteins were cloned and overexpressed with a N-terminal 6×His tag, then purified by nickel affinity followed by size exclusion chromatography. Briefly, E. coli BL21(DE3) cells were transformed with a recombinant expression vector encoding N-terminally Nickel affinity tagged bromodomains from Brd2, Brd3, Brd4. Cell cultures were incubated at 37° C. with shaking to the appropriate density and induced overnight with IPTG. The supernatant of lysed cells was loaded onto Ni-IDA column for purification. Eluted protein was pooled, concentrated and further purified by size exclusion chromatography. Fractions representing monomeric protein were pooled, concentrated, aliquoted, and frozen at −80° C. for use in subsequent experiments.
Binding of tetra-acetylated histone H4 and BET bromodomains was confirmed by a Homogenous Time Resolved Fluorescence Resonance Energy Transfer (HTRF®) method. N-terminally His-tagged bromodomains (200 nM) and biotinylated tetra-acetylated histone H4 peptide (25-50 nM, Millipore) were incubated in the presence of Europium Cryptate-labeled streptavidin (Cisbio Cat. #610SAKLB) and XL665-labeled monoclonal anti-His antibody (Cisbio Cat. #61HISXLB) in a white 96 well microtiter plate (Greiner). For inhibition assays, serially diluted test compound was added to these reactions in a 0.2% final concentration of DMSO. Duplicate wells were used for each concentration tested. Final buffer concentrations were 30 mM HEPES pH 7.4, 30 mM NaCl, 0.3 mM CHAPS, 20 mM phosphate pH 7.0, 320 mM KF, 0.08% BSA. After a 2 h incubation at room temperature, fluorescence was measured at 665 and 620 nm with a SynergyH4 plate reader (Biotek). The binding inhibitory activity was shown by a decrease in 665 nm relative to 620 nm fluorescence. IC50 values were determined from a dose response curve.

[2] = system: c-myc in Human AML MV4-11 cells; assay: Inhibition of c-MYC expression (mRNA, real-time PCR) in MV4-11 cells; type: cell-based; conditions: 3 h, mRNA by real-time PCR
Experimental: MV4-11 cells (CRL-9591) were plated at a density of 2.5×10^4 cells per well in 96 well U-bottom plates and treated with increasing concentrations of test compound or DMSO (0.1%) in IMDM media containing 10% FBS and penicillin/streptomycin, and incubated for 3 h at 37° C. Triplicate wells were used for each concentration. Cells were pelleted by centrifugation and harvested using the mRNA Catcher PLUS kit according to manufacturer's instructions. The eluted mRNA isolated was then used in a one-step quantitative real-time PCR reaction, using components of the RNA UltraSense™ One-Step Kit (Life Technologies) together with Applied Biosystems TaqMan® primer-probes for cMYC and Cyclophilin. Real-time PCR plates were run on a ViiA™7 real time PCR machine (Applied Biosystems), data was analyzed, normalizing the Ct values for hMYC to an internal control, prior to determining the fold expression of each sample, relative to the control.

Human AML MV-4-11 cells = assay: Inhibition of cell proliferation in MV4-11 cells (CellTiter Aqueous One); type: cell-based; conditions: 72 h
Experimental: In this example, cell titer in MV4-11 cells were quantitated to measure the inhibition of proliferation when treated with a compound of the present disclosure.
MV4-11 cells (CRL-9591) were plated at a density of 5×10^4 cells per well in 96 well flat bottom plates and treated with increasing concentrations of test compound or DMSO (0.1%) in IMDM media containing 10% FBS and penicillin/streptomycin. Triplicate wells were used for each concentration and a well containing only media was used as a control. Plates were incubated at 37° C., 5% CO2 for 72 h before adding 20 μL of the CellTiter Aqueous One Solution (Promega) to each well and incubated at 37° C., 5% CO2 for an additional 3-4 h. The absorbance was read at 490 nm in a spectrophotometer and the percentage of cell titer relative to DMSO-treated cells was calculated after correcting for background by subtracting the blank well's signal. IC50 values were calculated using the Graph Pad Prism software.

hIL-6 mRNA in U937 cells = assay: Inhibition of hIL-6 mRNA transcription in LPS-stimulated U937 cells; type: cell-based; conditions: Homo sapiens, U-937, PMA-differentiated U937 cells, LPS 1 ug/mL, 3 h, read-out: IL-6 activity
Experimental: In this example, hIL-6 mRNA in tissue culture cells were quantitated to measure the transcriptional inhibition of hIL-6 when treated with a compound of the present disclosure.
Human leukemic monocyte lymphoma U937 cells (CRL-1593.2) were plated at a density of 3.2×10^4 cells per well in a 96-well plate in 100 μL RPMI-1640 containing 10% FBS and penicillin/streptomycin, and differentiated into macrophages for 3 days in 60 ng/mL PMA ([…]) at 37° C. in 5% CO2 prior to the addition of compound. The cells were pretreated for 1 h with increasing concentrations of test compound in 0.1% DMSO prior to stimulation with 1 ug/mL lipopolysaccharide from Escherichia coli. Triplicate wells were used for each concentration. The cells were incubated at 37° C., 5% CO2 for 3 h before the cells were harvested. At time of harvest, media was removed and cells were rinsed in 200 μL PBS. Cells were harvested using the mRNA Catcher PLUS kit according to manufacturer's instructions. The eluted mRNA was then used in a one-step quantitative real-time PCR reaction using components of the RNA UltraSense™ One-Step Kit (Life Technologies) together with Applied Biosystems TaqMan® primer-probes for hIL-6 and Cyclophilin. Real-time PCR plates were run on a ViiA™7 real time PCR machine (Applied Biosystems), data was analyzed, normalizing the Ct values for hIL-6 to an internal control, prior to determining the fold expression of each sample, relative to the control.

[3] = system: hIL-17 mRNA in human peripheral blood mononuclear cells; assay: Inhibition of hIL-17 mRNA transcription in OKT3-stimulated PBMC; type: cell-based; conditions: OKT3 antibody, 6 h, read-out: IL-17 activity
Experimental: In this example, hIL-17 mRNA in human peripheral blood mononuclear cells were quantitated to measure the transcriptional inhibition of hIL-17 when treated with a compound of the present disclosure.
Human peripheral blood mononuclear cells were plated (2.0×10^5 cells per well) in a 96-well plate in 45 μL OpTimizer T Cell expansion media (Life Technologies) containing 20 ng/ml IL-2 and penicillin/streptomycin. The cells were treated with increasing concentrations of the test compound or DMSO (0.1%), and incubated at 37° C., 5% CO2 for 1 h before addition of 10× stock OKT3 antibody at 10 ug/ml in media. Triplicate wells were used for each concentration. Cells were incubated at 37° C., 5% CO2 for 6 h before the cells were harvested. At time of harvest, cells were pelleted by centrifugation at 800 rpm for 5 min. Cells were harvested using the mRNA Catcher PLUS kit according to manufacturer's instructions. The eluted mRNA was then used in a one-step quantitative real-time PCR reaction, using components of the RNA UltraSense™ One-Step Kit (Life Technologies) together with Applied Biosystems TaqMan® primer-probes for hIL-17 and Cyclophilin. Real-time PCR plates were run on a ViiA™7 real time PCR machine (Applied Biosystems), data was analyzed, normalizing the Ct values for hIL-17 to an internal control, prior to determining the fold induction of each unknown sample, relative to the control.

SMILES | IC50 [1] [nM] | IC50 [2] [nM] | IC50 (Human AML MV-4-11 cells) [nM] | IC50 (hIL-6 mRNA in U937 cells) [nM] | IC50 [3] [nM]
Cc1cnccc1-c1cc(-c2c(C)noc2C)cc2[nH]c(=O)n(C)c12 [Example Compound 38, 5-(3,5-dimethylisoxazol-4-yl)-1-methyl-7-(3-methylpyridin-4-yl)-1H-benzo[d]imidazol-2(3H)-one] | ≤ 300 | 300 to 3000 | 300 to 3000 | 300 to 3000 | –
COc1nc(C)ccc1-c1cc(-c2c(C)noc2C)cc2[nH]c(=O)n(C)c12 [Example Compound 45, 5-(3,5-dimethylisoxazol-4-yl)-7-(2-methoxy-6-methylpyridin-3-yl)-1-methyl-1H-benzo[d]imidazol-2(3H)-one] | 300 to 3000 | ≤ 300 | 300 to 3000 | 300 to 3000 | –
Cc1ccncc1-c1cc(-c2c(C)noc2C)cc2[nH]c(=O)n(C)c12 [Example Compound 6, 5-(3,5-dimethylisoxazol-4-yl)-1-methyl-7-(4-methylpyridin-3-yl)-1H-benzo[d]imidazol-2(3H)-one] | ≤ 300 | ≤ 300 | 300 to 3000 | ≤ 300 | –
Cc1ccccc1-c1cc(-c2c(C)noc2C)cc2[nH]c(=O)n(C)c12 [Example Compound 40, 5-(3,5-dimethylisoxazol-4-yl)-1-methyl-7-(o-tolyl)-1H-benzo[d]imidazol-2(3H)-one] | ≤ 300 | ≤ 300 | 300 to 3000 | 300 to 3000 | –
Cc1ccc(C(N)=O)cc1-c1cc(-c2c(C)noc2C)cc2[nH]c(=O)n(C)c12 [Example Compound 29, 3-(6-(3,5-dimethylisoxazol-4-yl)-3-methyl-2-oxo-2,3-dihydro-1H-benzo[d]imidazol-4-yl)-4-methylbenzamide] | ≤ 300 | ≤ 300 | 300 to 3000 | 300 to 3000 | –
Cc1noc(C)c1Nc1cc(-c2c(C)noc2C)cc2[nH]c(=O)n(C)c12 [Example Compound 33, 5-(3,5-dimethylisoxazol-4-yl)-7-((3,5-dimethylisoxazol-4-yl)amino)-1-methyl-1H-benzo[d]imidazol-2(3H)-one] | ≤ 300 | ≤ 300 | 300 to 3000 | 300 to 3000 | –

Results, then the molecule that gave them:

IC50 [1] [nM] | IC50 [2] [nM] | IC50 (Human AML MV-4-11 cells) [nM] | IC50 (hIL-6 mRNA in U937 cells) [nM] | IC50 [3] [nM] | SMILES
≤ 300 | ≤ 300 | ≤ 300 | ≤ 300 | 300 to 3000 | Cc1noc(C)c1-c1cc(-c2ccccc2C(F)(F)F)c2c(c1)[nH]c(=O)n2C [Example Compound 5, 5-(3,5-dimethylisoxazol-4-yl)-1-methyl-7-(2-(trifluoromethyl)phenyl)-1H-benzo[d]imidazol-2(3H)-one]
≤ 300 | 300 to 3000 | 300 to 3000 | 300 to 3000 | – | Cc1noc(C)c1-c1cc(-c2cccnc2C(F)(F)F)c2c(c1)[nH]c(=O)n2C [Example Compound 8, 5-(3,5-dimethylisoxazol-4-yl)-1-methyl-7-(2-(trifluoromethyl)pyridin-3-yl)-1H-benzo[d]imidazol-2(3H)-one]
≤ 300 | ≤ 300 | 300 to 3000 | ≤ 300 | – | Cc1n[nH]c(C)c1-c1cc(-c2c(C)noc2CO)cc2[nH]c(=O)n(C)c12 [Example Compound 32, 7-(3,5-dimethyl-1H-pyrazol-4-yl)-5-(5-(hydroxymethyl)-3-methylisoxazol-4-yl)-1-methyl-1H-benzo[d]imidazol-2(3H)-one]
≤ 300 | 300 to 3000 | 300 to 3000 | ≤ 300 | – | Cc1ncccc1Oc1cc(-c2c(C)noc2C)cc2[nH]c(=O)n(C)c12 [Example Compound 31, 5-(3,5-dimethylisoxazol-4-yl)-1-methyl-7-((2-methylpyridin-3-yl)oxy)-1H-benzo[d]imidazol-2(3H)-one]
≤ 300 | 300 to 3000 | ≤ 300 | ≤ 300 | 300 to 3000 | Cc1nc(N)ccc1-c1cc(-c2c(C)noc2C)cc2[nH]c(=O)n(C)c12 [Example Compound 20, 7-(6-amino-2-methylpyridin-3-yl)-5-(3,5-dimethylisoxazol-4-yl)-1-methyl-1H-benzo[d]imidazol-2(3H)-one]
≤ 300 | ≤ 300 | 300 to 3000 | 300 to 3000 | – | Cc1nn(C)c(C)c1Nc1cc(-c2c(C)noc2C)cc2[nH]c(=O)n(C)c12 [Example Compound 26, 5-(3,5-dimethylisoxazol-4-yl)-1-methyl-7-((1,3,5-trimethyl-1H-pyrazol-4-yl)amino)-1H-benzo[d]imidazol-2(3H)-one]
≤ 300 | ≤ 300 | ≤ 300 | ≤ 300 | – | Cc1noc(C)c1-c1cc(-c2c(C)nn(C)c2C)c2[nH]c(=S)[nH]c2c1 [Example Compound 23, 6-(3,5-dimethylisoxazol-4-yl)-4-(1,3,5-trimethyl-1H-pyrazol-4-yl)-1H-benzo[d]imidazole-2(3H)-thione]
≤ 300 | 3000 to 30000 | 3000 to 30000 | 300 to 3000 | – | Cc1noc(C)c1-c1cc(-c2c(C)noc2C)c2oc(=O)[nH]c2c1 [Example Compound 3, 5,7-bis(3,5-dimethylisoxazol-4-yl)benzo[d]oxazol-2(3H)-one]
